# Results reported in US20080305547A1, “Method for enhanced functional expression of cell receptors” (priority 2007, published 2008).
# Legend:
# mOR-EG [1] = target: T1, mOR-EG (Mus musculus, UniProt Q920P2); experiment: cAMP ELISA in transfected HEK293T cells expressing mOR-EG; format: cell-based, murine; conditions: cells transfected with mOR-EG, Ric-8B and Gαolf; 300 μM
# T1 construct: expressed in transfected cells; host or cells: HEK293T
# T1 sequence (Q920P2 1-313): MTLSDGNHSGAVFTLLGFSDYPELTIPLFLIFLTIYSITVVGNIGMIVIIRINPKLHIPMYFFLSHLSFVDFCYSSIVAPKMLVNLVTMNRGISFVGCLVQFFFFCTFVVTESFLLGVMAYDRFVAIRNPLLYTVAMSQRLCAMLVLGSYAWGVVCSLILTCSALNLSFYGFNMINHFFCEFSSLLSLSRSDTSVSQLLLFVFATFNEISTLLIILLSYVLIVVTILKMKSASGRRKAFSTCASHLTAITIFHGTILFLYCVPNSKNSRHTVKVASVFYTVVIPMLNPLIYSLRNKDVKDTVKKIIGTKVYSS
# Method: (§1) These experiments were carried out in order to determine if Ric-8B amplifies signaling through odorant receptors (“ORs” hereafter). This was accomplished by using one of the murine ORs, i.e., first cloning murine OR-EG (“mOR-EG” hereafter), from murine genomic DNA via polymerase chain reaction (“PCR”), using standard method. Following this, receptor specificity was confirmed by functional expression of the rhodopsin tagged version of mOR-EG, in HEK293T cells. This is explained infra.
# (§2) HEK293T cells were plated, at 0.5×10^5 cells/well, of a 96 well plate. The cells were cultured using standard conditions, for 16-20 hours, after which they were transfected, via the well known, lipofectamine method with mOR-EG cDNA that had been subcloned into the XboI and KpnI restriction sites of plasmid pcDNA 3.1 (−), Gαolf whose full length cDNA had been cloned from murine olfactory epithelium, and subcloned into the XboI site of pcDNA 3.1 (−) expression vector, and Ric-8B, whose full length encoding cDNA had been prepared the same way and then cloned into pcDNA3 vector, with a flag epitope, at the BamHI site of pcDNA3 were used. 100 ngs of each cDNA construct were used for transfection. After 3 hours of transfection, serum containing medium was replaced by serum free medium, and the cells were incubated for 40 hours. Then, additional serum free medium containing 300 μM of eugenol was added, after which cells were incubated for 10 minutes. Activity was determined, by using a commercially available, cAMP ELISA kit.
# (§3) In these experiments, mOR-EG odorant specificity was tested, in cells which had also been transfected with Ric-8B and Gαolf Vanillin, nonenedoic acid, acetophenone, (−), limonene, heptanol, 2-heptanol, hexanol, and (+/−) cerveone were tested at high concentrations (300 μM).
# mOR-S6 [2] = conditions: murine olfactory neurons, single cell RT-PCR; cited from earlier work
# mOR-S6 [3] = experiment: cAMP ELISA in transfected HEK293T cells expressing mOR-S6; format: cell-based, murine
# Method: as §2
# The same procedures set forth supra for isolating, cloning, and amplifying mOR-EG were used for the coding region of mOR-S6. Rhodopsin tagged mOR-S6 was also used. The same protocols were carried out as are discussed supra, using nonanedoic acid as the agonist.
# mOR-EG [4] = target: T2, mOR-EG (Mus musculus, UniProt Q920P2); conditions: previously shown; cited from earlier work
# T2 construct: expressed in transfected cells; host or cells: HEK293T
# T2 sequence (Q920P2 with tags, fused parts or gaps): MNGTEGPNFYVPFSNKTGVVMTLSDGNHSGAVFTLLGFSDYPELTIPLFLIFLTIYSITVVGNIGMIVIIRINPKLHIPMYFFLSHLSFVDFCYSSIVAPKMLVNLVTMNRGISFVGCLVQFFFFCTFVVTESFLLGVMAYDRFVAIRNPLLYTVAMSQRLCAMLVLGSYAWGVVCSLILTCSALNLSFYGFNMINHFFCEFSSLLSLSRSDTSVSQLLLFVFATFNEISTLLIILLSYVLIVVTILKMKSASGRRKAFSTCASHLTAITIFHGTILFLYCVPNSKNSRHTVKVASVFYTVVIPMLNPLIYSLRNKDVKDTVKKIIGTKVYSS
# rat OR-17 = target: T3, rat OR-17 (Rattus norvegicus, UniProt P23270); conditions: cited from earlier work
# T3 sequence (P23270 1-327): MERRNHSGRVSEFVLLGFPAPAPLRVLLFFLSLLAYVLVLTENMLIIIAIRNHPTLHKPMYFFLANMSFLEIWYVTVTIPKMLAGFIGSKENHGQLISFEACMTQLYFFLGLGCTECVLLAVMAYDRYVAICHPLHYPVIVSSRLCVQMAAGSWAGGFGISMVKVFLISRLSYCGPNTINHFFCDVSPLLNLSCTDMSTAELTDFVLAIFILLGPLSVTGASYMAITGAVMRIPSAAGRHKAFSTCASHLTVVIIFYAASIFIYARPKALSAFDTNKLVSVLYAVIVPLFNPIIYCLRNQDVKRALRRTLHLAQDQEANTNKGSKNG
# mOR-EG [5] = target: T2, mOR-EG; experiment: cAMP ELISA in transfected HEK293T cells expressing mOR-EG; format: cell-based, murine; conditions: HEK293T transfected with rhodopsin tagged mOR-EG, Gαolf (and Ric-8B); 300 μM, 10 minutes
# Method: as §1, §2, §3
# mOR-EG [6] = target: T1, mOR-EG; experiment: as above; format: cell-based, murine; conditions: HEK293T transfected with untagged mOR-EG and Gαolf; 300 μM, 10 minutes
# mOR-17 = target: T4, mOR-17 (Mus musculus, UniProt Q9QWU6); experiment: cAMP ELISA in transfected HEK293T cells expressing mOR-17; format: cell-based, murine
# T4 construct: expressed in transfected cells; host or cells: HEK293T
# T4 sequence (Q9QWU6 1-327): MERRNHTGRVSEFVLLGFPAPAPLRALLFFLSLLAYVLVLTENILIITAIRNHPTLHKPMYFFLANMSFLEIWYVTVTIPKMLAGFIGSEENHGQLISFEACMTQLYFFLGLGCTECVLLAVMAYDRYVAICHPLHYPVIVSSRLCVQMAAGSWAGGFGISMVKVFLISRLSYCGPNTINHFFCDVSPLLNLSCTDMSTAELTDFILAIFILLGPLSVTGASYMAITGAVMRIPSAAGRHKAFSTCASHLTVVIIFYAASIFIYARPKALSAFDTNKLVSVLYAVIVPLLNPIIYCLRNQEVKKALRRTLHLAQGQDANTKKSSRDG
# Method: as §2
# To further this work, the same protocols as are described supra were carried out, using untagged mOR-17, Gαolf, Ric-8B, and RTP1.
# OR-17 = target: T5, OR-17 (Mus musculus, UniProt Q9QWU6); conditions: GFP tagged mouse olfactory neurons endogenously expressing OR-17; cited from earlier work
# T5 construct: mouse olfactory neurons which endogenously express OR-17; host or cells: mouse olfactory neurons
# T5 sequence (Q9QWU6 1-327): T4 sequence (Q9QWU6 1-327)
# murine form of OR-17 = target: T6, murine form of OR-17 (Mus musculus, UniProt Q9QWU6); conditions: co-expression with Gα/16 in HEK293 cells; cited from earlier work
# T6 construct: host or cells: HEK293
# T6 sequence (Q9QWU6 1-327): T4 sequence (Q9QWU6 1-327)
compound,measurement,setting,value
CCCCCCO [hexanol],stimulation of cAMP production (odorant specificity),mOR-EG [1],Only eugenol stimulated production of cAMP
O=C(O)CCCCCCCC(=O)O [nonanedoic acid],stimulation of cAMP production (odorant specificity),mOR-EG [1],Only eugenol stimulated production of cAMP
same,response of the OR to the odorant,mOR-S6 [2],responded
same,increase in cAMP production,"mOR-S6 [3]; all four elements: rhodopsin tagged mOR-S6, Ric-8B, RTP1 and Gαolf",significant increase
same,increase in cAMP production,"mOR-S6 [3]; cells co-transfected with mOR-S6, Gαolf and Ric-8B",no significant increase
same,increase in cAMP production,mOR-S6 [3]; cells co-transfected with mOR-S6 and Gαolf,no significant increase
same,increase in cAMP production,"mOR-S6 [3]; mOR-S6, Gαolf and RTP1 (RTP1 replaced Ric-8B)","slight, insignificant increase"
same,increase in cAMP production,"mOR-S6 [3]; non-tagged mOR-S6 in parallel expression systems (Ric-8B, RTP1, Gαolf)",not observed
COc1cc(C=O)ccc1O [Vanillin],stimulation of cAMP production (odorant specificity),mOR-EG [1],Only eugenol stimulated production of cAMP
same,stimulation of rhodopsin tagged mOR-EG,mOR-EG [4],has been shown to stimulate
CCCCCCCCO [octanol],recognition of odorant by receptor,rat OR-17,recognizes
CCCCCCCO [heptanol],stimulation of cAMP production (odorant specificity),mOR-EG [1],Only eugenol stimulated production of cAMP
CC(=O)c1ccccc1 [acetophenone],stimulation of cAMP production (odorant specificity),mOR-EG [1],Only eugenol stimulated production of cAMP
CCCCCC(C)O (stereo not drawn) [2-heptanol],stimulation of cAMP production (odorant specificity),mOR-EG [1],Only eugenol stimulated production of cAMP
"C=C(C)C1CC=C(C)C(=O)C1 (racemic) [(+/−) cerveone, cerveone]",stimulation of cAMP production (odorant specificity),mOR-EG [1],Only eugenol stimulated production of cAMP
C=CCc1ccc(O)c(OC)c1 [eugenol],stimulation of cAMP production (odorant specificity),mOR-EG [1],stimulated production of cAMP
same,increase in cAMP levels as compared to unstimulated cells (factor),mOR-EG [5],~3
same,response to the agonist (cAMP),mOR-EG [6],did not respond
CCCCCCC=O [heptanal],response of transfected cells to odorant (cAMP),"mOR-17; all four elements: untagged mOR-17, Gαolf, Ric-8B and RTP1",responded to heptanal specifically
same,response of transfected cells to odorant (cAMP),"mOR-17; untagged mOR-17, Gαolf and RTP1 (RTP1 replaced Ric-8B)",did not
same,response of transfected cells to odorant (cAMP),"mOR-17; untagged mOR-17, Gαolf and Ric-8B",responded
same,recognition of odorant by receptor,OR-17,recognized
same,recognition of odorant by receptor,murine form of OR-17,preferentially recognizes
C=C(C)[C@H]1CC=C(C)CC1 [limonene],stimulation of cAMP production (odorant specificity),mOR-EG [1],Only eugenol stimulated production of cAMP
